Test results: US12428386B2, “Sphingosine 1 phosphate receptor modulators” (RECEPTOS LLC, priority 2020, dated 2025)

molecular target: T1, S1P5 (Homo sapiens, UniProt Q9H228); assay: [35S]-GTPγS binding assay, CHO-S1P receptor membranes, S1P5; type: biochemical; conditions: CHO-S1P receptor membrane
T1 construct: expressed in transfected cells; host or cells: CHO cell membranes
Experimental: (§1) Binding assays for [^35S]-GTPγS were performed in 96-well non-binding surface plates with a final volume of 200 μL. The test compounds were serial diluted in DMSO and added to assay plates using a Tecan D300E digital printer with a total volume of 0.4 μL. The control sphingosine-1-phosphate (S1P) was prepared separately by preparing a 400 μM stock solution from a 100 nmol pellet of S1P in 10 mM Na2CO3 with 2% β-cyclodextrin. The serial dilution of S1P was done using complete assay buffer (20 mM HEPES, 10 mM MgCl2, 100 mM NaCl, 1 mM EDTA, 0.1% fatty acid free bovine serum albumin [BSA], and 30 μg/mL saponin, pH7.4) and transferred to wells already containing 0.4 μL DMSO. All the wells were then loaded to a total volume of 40 μL of complete assay buffer, except the non-specific binding (NSB) wells. For NSB wells, 40 μL/well of 50 μM GTPγS (Sigma Aldrich, cat# G8634, St. Louis, MO) was added to wells containing 0.4 μL of DMSO. The assay was started by the addition of 120 μL/well of CHO-S1P receptor membrane solution containing 40 μg/mL of membrane protein, 16.67 μM guanosine diphosphate (GDP; Sigma Aldrich, cat# G7127, St. Louis, MO), and 2.5 mg/mL of WGA PVT SPA beads in complete buffer. Assay plates were then sealed and incubated at room temperature with gentle agitation for 30 minutes. Next, 40 μL/well of 1 nM of [^35S]-GTPγS (PerkinElmer, cat# NEG030×250UC, Waltham, MA) in basic assay buffer (20 mM HEPES, 10 mM MgCl2, 100 mM NaCl, and 1 mM EDTA, pH7.4) was added to the assay plates to yield a final concentration of 200 pM and the plates were further incubated for 40 minutes at room temperature with gentle agitation. The assay was terminated by centrifugation of the plates at 1000 rpm for 3 minutes using an Eppendorf 5810R centrifuge (Eppendorf, Hamburg, Germany) and G protein bound radioactivity was quantitated using a MicroBeta2 microplate scintillation counter (PerkinElmer, Waltham, MA).

T1 sequence (Q9H228 whole entry, species assumed): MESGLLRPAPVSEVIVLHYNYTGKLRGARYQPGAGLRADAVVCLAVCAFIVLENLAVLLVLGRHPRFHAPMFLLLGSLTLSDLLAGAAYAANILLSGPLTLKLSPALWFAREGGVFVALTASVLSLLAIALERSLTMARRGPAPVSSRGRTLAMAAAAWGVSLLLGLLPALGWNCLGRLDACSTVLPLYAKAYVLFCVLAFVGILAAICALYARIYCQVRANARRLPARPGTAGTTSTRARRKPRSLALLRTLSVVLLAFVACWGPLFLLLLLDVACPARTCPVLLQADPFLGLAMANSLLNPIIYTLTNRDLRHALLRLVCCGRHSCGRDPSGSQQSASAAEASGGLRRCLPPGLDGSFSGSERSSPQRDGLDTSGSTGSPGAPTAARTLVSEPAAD

| EC50 [nM] | SMILES |
| --- | --- |
| 151 | CC(C)OC1=CCc2c1cccc2-c1noc(-c2ccc(OC(C)C)c(C#N)c2)n1 [compound 4, 2-isopropoxy-5-(3-(3-isopropoxy-1H-inden-7-yl)-1,2,4-oxadiazol-5-yl)-benzonitrile] |
| 270 | CCOC1=CCc2c1cccc2-c1noc(-c2ccc(OC(C)C)c(C#N)c2)n1 [compound 3, 5-(3-(3-ethoxy-1H-inden-7-yl)-1,2,4-oxadiazol-5-yl)-2-isopropoxy-benzonitrile] |
| 148 | COC1=CCc2c1cccc2-c1noc(-c2ccc(OC(C)C)c(C#N)c2)n1 [compound 2, 2-isopropoxy-5-(3-(3-methoxy-1H-inden-7-yl)-1,2,4-oxadiazolyl)benzonitrile] |

same assay, conditions: CHO-S1P receptor membrane, control S1P, read-out: S1P5 % Efficacy

| Emax [%] | SMILES |
| --- | --- |
| 79 | CC(C)OC1=CCc2c1cccc2-c1noc(-c2ccc(OC(C)C)c(C#N)c2)n1 [compound 4, 2-isopropoxy-5-(3-(3-isopropoxy-1H-inden-7-yl)-1,2,4-oxadiazol-5-yl)-benzonitrile] |
| 68 | CCOC1=CCc2c1cccc2-c1noc(-c2ccc(OC(C)C)c(C#N)c2)n1 [compound 3, 5-(3-(3-ethoxy-1H-inden-7-yl)-1,2,4-oxadiazol-5-yl)-2-isopropoxy-benzonitrile] |
| 33 | COC1=CCc2c1cccc2-c1noc(-c2ccc(OC(C)C)c(C#N)c2)n1 [compound 2, 2-isopropoxy-5-(3-(3-methoxy-1H-inden-7-yl)-1,2,4-oxadiazolyl)benzonitrile] |

molecular target: T2, S1P1 (Homo sapiens, UniProt P21453); assay: [35S]-GTPγS binding assay, CHO-S1P receptor membranes, S1P1; type: biochemical; conditions: CHO-S1P receptor membrane
T2 construct: expressed in transfected cells; host or cells: CHO cell membranes
T2 sequence (P21453 whole entry, species assumed): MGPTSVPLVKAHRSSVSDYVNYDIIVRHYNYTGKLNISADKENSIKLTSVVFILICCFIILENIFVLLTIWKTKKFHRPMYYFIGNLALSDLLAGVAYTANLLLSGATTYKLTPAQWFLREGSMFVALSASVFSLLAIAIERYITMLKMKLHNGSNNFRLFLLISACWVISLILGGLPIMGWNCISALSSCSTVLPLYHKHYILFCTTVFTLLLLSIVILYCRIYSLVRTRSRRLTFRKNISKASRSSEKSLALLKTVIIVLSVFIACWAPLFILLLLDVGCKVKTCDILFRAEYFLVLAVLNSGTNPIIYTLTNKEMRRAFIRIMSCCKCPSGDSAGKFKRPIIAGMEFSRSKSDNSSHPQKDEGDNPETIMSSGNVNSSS
Experimental: as §1

| EC50 [nM] | SMILES |
| --- | --- |
| 7 | CC(C)OC1=CCc2c1cccc2-c1noc(-c2ccc(OC(C)C)c(C#N)c2)n1 [compound 4, 2-isopropoxy-5-(3-(3-isopropoxy-1H-inden-7-yl)-1,2,4-oxadiazol-5-yl)-benzonitrile] |
| 32 | CCOC1=CCc2c1cccc2-c1noc(-c2ccc(OC(C)C)c(C#N)c2)n1 [compound 3, 5-(3-(3-ethoxy-1H-inden-7-yl)-1,2,4-oxadiazol-5-yl)-2-isopropoxy-benzonitrile] |
| 18 | COC1=CCc2c1cccc2-c1noc(-c2ccc(OC(C)C)c(C#N)c2)n1 [compound 2, 2-isopropoxy-5-(3-(3-methoxy-1H-inden-7-yl)-1,2,4-oxadiazolyl)benzonitrile] |

same assay, conditions: CHO-S1P receptor membrane, control S1P, read-out: S1P1 % Efficacy

| Emax [%] | SMILES |
| --- | --- |
| 86 | CC(C)OC1=CCc2c1cccc2-c1noc(-c2ccc(OC(C)C)c(C#N)c2)n1 [compound 4, 2-isopropoxy-5-(3-(3-isopropoxy-1H-inden-7-yl)-1,2,4-oxadiazol-5-yl)-benzonitrile] |
| 92 | CCOC1=CCc2c1cccc2-c1noc(-c2ccc(OC(C)C)c(C#N)c2)n1 [compound 3, 5-(3-(3-ethoxy-1H-inden-7-yl)-1,2,4-oxadiazol-5-yl)-2-isopropoxy-benzonitrile] |
| 87 | COC1=CCc2c1cccc2-c1noc(-c2ccc(OC(C)C)c(C#N)c2)n1 [compound 2, 2-isopropoxy-5-(3-(3-methoxy-1H-inden-7-yl)-1,2,4-oxadiazolyl)benzonitrile] |
